These results are taken from US4610994A, “1,2,3-triazole anticonvulsant drugs” (priority 1984, dated 1986).

The format of data set [1] is in vivo. To be noted: mice, subcutaneous.
Excerpt: (§1) The profile of anticonvulsant activity for each substance was established by five tests: one electrical and four chemical. The electrical test employed was the maximal electroshock seizure pattern test. […] Except for the sc Strych Test, these tests measure the ability of anticonvulsants to afford complete protection against threshold seizures induced by the subcutaneous injection of the CD97 of the convulsant agent.
The nature of data set [2]: sc convulsant dose CD97 in rats. Format: in vivo. To be noted: Rattus norvegicus, subcutaneous.
Excerpt: as §1
For data set [3] the following is noted: rats, oral, higher doses; cited from earlier work.
Data set [4] has as its system subcutaneous Strychnine seizures. It counts as in vivo, mice (male albino, CF No. 1). As to conditions: mice, i.p.
Description: (§2) All animals were allowed free access to both food (S/L Custom Lab Diet-7) and water, except when they were removed from their cages for the experimental procedure.
(§3) The drugs were administered either orally or intraperitoneally in a volume of 0.01 ml/g body weight in mice and 0.04 ml/10 g in rats. All tests were conducted at the previously determined time of peak drug effect.
as §1
(§4) All convulsants were administered subcutaneously into a loose fold of skin on the back of the neck in a volume of 0.01 ml/g body weight in mice; Metrazol was injected in a volume of 0.02 ml/10 g body weight in rats. The convulsant drugs were administered at the previously determined time of peak anticonvulsant action of the drug under study. […] Except for strychnine, absence of a five-second episode of clonic spasms (threshold seizure) was taken as protection. In the case of strychnine, complete abolition of the hindleg tonic extension was taken as protection.
A short description of data set [5]: loss of righting reflex (HD50) in mice i.p. Details: species or system mice (male albino, CF No. 1). As to conditions: for HD50 (righting reflex): mice, i.p., 95% confidence interval.
Description: (§5) The profile of toxicity for each test drug was established by the following procedures: Firstly, the minimal neurotoxic dose (TD50) was determined by the rotorod procedure at the time of peak neurotoxic effect. When a normal mouse is placed on a knurled rod one inch in diameter rotating at a speed of six rpm it can maintain its equilibrium for long periods of time. Neurological deficit is indicated by inability of the mouse to maintain its equilibrium for one minute in each of three trials on this rotating rod. […] The HD50 represents the median dose at which 50% of animals lose their righting reflex.
Data set [6] deals with subcutaneous Metrazol seizures. As to the kind of experiment: subcutaneous Metrazol Seizure Threshold Test (sc Met) in mice.
Description: as §2, §3, §1, §4
Data set [7] relates to subcutaneous Bicuculline seizures. As to the kind of experiment: subcutaneous Bicuculline Seizure Threshold Test (sc Bic) in mice. To be noted: mice i.p.; Compound 10 up to 300 mg/kg. It counts as in vivo, mice (male albino, CF No. 1).
Description: as §2, §3, §1, §4
The nature of data set [8]: Phase III toxicity profile (overt signs and symptoms) in mice i.p.
Description: as §5
Data set [9] deals with subcutaneous Picrotoxin seizures. As to the kind of experiment: subcutaneous Picrotoxin Seizure Threshold Test (sc Pic) in mice. It counts as in vivo, mice (male albino, CF No. 1). As to conditions: mice i.p.; Compound 10 up to 300 mg/kg.
Description: as §2, §3, §1, §4
For data set [10] the following is noted: mouse, in vivo, ip.
Description: as §2, §3
(§6) The profile of toxicity for each test drug was established by the following procedures: Firstly, the minimal neurotoxic dose (TD50) was determined by the rotorod procedure at the time of peak neurotoxic effect. When a normal mouse is placed on a knurled rod one inch in diameter rotating at a speed of six rpm it can maintain its equilibrium for long periods of time. Neurological deficit is indicated by inability of the mouse to maintain its equilibrium for one minute in each of three trials on this rotating rod. Neurological deficit in rats is indicated by ataxia, loss of placing response and muscle tone.
Another data set can be described thus: in vivo. To be noted: rat, po.
The test system of data set [11] is subcutaneous Metrazol seizures. As to the kind of experiment: subcutaneous Metrazol Seizure Threshold Test (sc Met) in rats. As to conditions: p.o.
Description: as §2, §3, §1, §4
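Throughout, for time of peak toxicity, rotorod: mice on rotorod: neurological deficit scored when the animal cannot keep balance for 1 min in every one of three trials on a 1-inch knurled rod turning at 6 rpm.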

Description for in vivo: as §2, §3, §6

`C1CCc2nnnn2CC1` [Metrazol]: in [1], the “sc CD97” value is reported as 85 mg/kg. For the same molecule, the ED97 in data set [2] was 70 mg/kg.

As for `O=C1NC(=O)C(c2ccccc2)(c2ccccc2)N1` [Phenytoin], the “absorption from the gastrointestinal tract” value in [3] is listed as “absorbed only to a limited extent”. In addition, the “animals protected in the sc Strych test” value in data set [4] stood at 50%. For the same molecule, the “HD50 (righting reflex)” value in [5] is recorded as 178.34(152.93-195.45) mg/kg; in [5] (listed as phenytoin), 178.34 mg/kg. Besides, the “time of peak toxicity (TPE), righting reflex” value in data set [5] (mouse, in vivo, ip) is 12 h. Further, the “effectiveness by the sc Met test” value in [6] (mice i.p., listed as phenytoin) is “did not protect against subcutaneous Metrazol seizures”; in data set [6] (mice, i.p.) it was “ineffective”; in [11], “ineffective”. In [6] (mice, i.p., 95% confidence interval), the “sc Met ED50” value is on record as more than 300 mg/kg. For the same molecule, the “effectiveness by the sc Bic test” value in data set [7] is “ineffective”. In addition, in data set [8] (1TD50), the “Profile of acute toxicity, 1 x TD50” value is listed as “activity, slight ataxia, fre-”. Also, in data set [8] (2TD50), the “Profile of acute toxicity, 2 x TD50” value was “Mild ataxia,”. The “effectiveness by the sc Pic test” value in [9] was “ineffective”. Further, the “time of peak toxicity, rotorod” value in data set [10] came out at 2 h. The molecule also came in with a TD50 in “in vivo” of more than 3000 mg/kg.
